From patent US10376520B2, “Methods for the treatment of cardiovascular disorders” (Galapagos NV, priority 2015, dated 2019)

Tested on: RA patients
Experiment: LDL determination, Study 1 (RA patients, add-on to MTX)
Type: in vivo, human
Description: Double-blind, placebo-controlled add on study in subjects with moderately to severely active RA who have an inadequate response to methotrexate (MTX) (oral or parenteral).
595 subjects randomized to one of 6 dose regimens of Compound 1 (dosed as a [Compound 1:HCl:3H2O]) (3 dose levels administered either once or twice daily) or placebo on top of each subject's stable dose of MTX.
Compound 1 (dosed as a [Compound 1:HCl:3H2O]) is dosed for twelve weeks once daily (q.d.) (50 mg, 100 mg or 200 mg) or twice daily (b.i.d.) (25 mg, 50 mg or 100 mg); or placebo.
At Week 12, the subjects on placebo who have not achieved 20% improvement in swollen joint count (SJC66) and tender joint count (TJC68) are re-randomized automatically to receive Compound 1 (dosed as a [Compound 1:HCl:3H2O]) either at 100 mg q.d. or 50 mg b.i.d. doses in a blinded fashion; subjects on 50 mg q.d. who have not achieved 20% improvement in SJC66 and TJC68 will be assigned to 100 mg q.d. and subjects on 25 mg b.i.d. that have not achieved a 20% improvement in SJC66 and TJC68 will be assigned to 50 mg b.i.d. Subjects who switch treatment at week 12 are handled as if they discontinued at week 12 for the purpose of statistical analysis, whereas subjects in the other groups will maintain their randomized treatment until Week 24.
The determination of [LDL]-cholesterol is made using an automated method taking advantage of the selective micellary solubilization of [LDL]-cholesterol by a nonionic detergent and the interaction of a sugar compound and lipoproteins (VLDL and chylomicrons).
When a detergent is included in the enzymatic method for cholesterol determination (cholesterol esterase, cholesterol oxidase coupling reaction), the relative reactivities of cholesterol in the lipoprotein fractions increase in this order: [HDL]<chylomicrons <VLDL <[LDL]. In the presence of Mg^2+, a sugar compound markedly reduces the enzymatic reaction of the cholesterol measurement in VLDL and chylomicrons. The combination of a sugar compound with detergent enables the selective determination of [LDL]-cholesterol in serum. (Friedewald et al., 1972; Rifai et al., 1992)
Homogeneous enzymatic colorimetric assay.
In the presence of peroxidase, the hydrogen peroxide generated reacts with 4-aminoantipyrine and Sodium N-(2-hydroxy-3-sulfopropyl)-3,5-dimethoxyaniline (HSDA) to form a purple-blue dye.
The color intensity of this dye is directly proportional to the cholesterol concentration and is measured photometrically.
Human serum and plasma samples [LDL] determination was done on a Roche/Hitachi Cobas c 701/702 system which automatically calculate the analyte concentration of each sample. Samples containing precipitates are centrifuged before performing the assay.

[1] = Study 1 12 weeks results, 200 mg q.d., week 2
[2] = Study 1 12 weeks results, 200 mg q.d., week 4
[3] = Study 1 12 weeks results, 200 mg q.d., week 8
[4] = Study 1 12 weeks results, 200 mg q.d., week 12
[5] = Study 1 12 weeks results, 2 x 25 mg b.i.d., week 1
[6] = Study 1 12 weeks results, 2 x 25 mg b.i.d., week 2
[7] = Study 1 12 weeks results, 2 x 25 mg b.i.d., week 4
[8] = Study 1 12 weeks results, 2 x 25 mg b.i.d., week 8
[9] = Study 1 12 weeks results, 2 x 25 mg b.i.d., week 12
[10] = Study 1 12 weeks results, 2 x 50 mg b.i.d., week 1
[11] = Study 1 12 weeks results, 2 x 50 mg b.i.d., week 2
[12] = Study 1 12 weeks results, 2 x 50 mg b.i.d., week 4
[13] = Study 1 12 weeks results, 2 x 50 mg b.i.d., week 8
[14] = Study 1 12 weeks results, 2 x 50 mg b.i.d., week 12
[15] = Study 1 12 weeks results, 2 x 100 mg b.i.d., week 1
[16] = Study 1 12 weeks results, 2 x 100 mg b.i.d., week 2
[17] = Study 1 12 weeks results, 2 x 100 mg b.i.d., week 4
[18] = Study 1 12 weeks results, 2 x 100 mg b.i.d., week 8
[19] = Study 1 12 weeks results, 2 x 100 mg b.i.d., week 12
[20] = Study 1 24 weeks results, continued 50 mg q.d., week 1
[21] = Study 1 24 weeks results, continued 50 mg q.d., week 2
[22] = Study 1 24 weeks results, continued 50 mg q.d., week 4
[23] = Study 1 24 weeks results, continued 50 mg q.d., week 8
[24] = Study 1 24 weeks results, continued 50 mg q.d., week 12
[25] = Study 1 24 weeks results, continued 50 mg q.d., week 16
[26] = Study 1 24 weeks results, continued 50 mg q.d., week 20
[27] = Study 1 24 weeks results, continued 50 mg q.d., week 24
[28] = Study 1 24 weeks results, continued 100 mg q.d., week 1
[29] = Study 1 24 weeks results, continued 100 mg q.d., week 2
[30] = Study 1 24 weeks results, continued 100 mg q.d., week 4
[31] = Study 1 24 weeks results, continued 100 mg q.d., week 8
[32] = Study 1 24 weeks results, continued 100 mg q.d., week 12
[33] = Study 1 24 weeks results, continued 100 mg q.d., week 16
[34] = Study 1 24 weeks results, continued 100 mg q.d., week 20
[35] = Study 1 24 weeks results, continued 100 mg q.d., week 24
[36] = Study 1 24 weeks results, continued 200 mg q.d., week 24
[37] = Study 1 24 weeks results, placebo switched to 50 mg b.i.d at week 12, week 16
[38] = Study 1 24 weeks results, placebo switched to 50 mg b.i.d at week 12, week 20
[39] = Study 1 24 weeks results, placebo switched to 50 mg b.i.d at week 12, week 24

For `O=C(Nc1nc2cccc(-c3ccc(CN4CCS(=O)(=O)CC4)cc3)n2n1)C1CC1` [Compound 1, cyclopropanecarboxylic acid {5-[4-(1,1-dioxo-thiomorpholin-4-ylmethyl)-phenyl]-[1,2,4]triazolo[1,5-a]pyridin-2yl}-amide], the “[LDL] Mean CFB” value [1] was 0.11 mmol/L, the “[LDL] Median CFB” value [1] was 0.13 mmol/L and the “[LDL] Mean CFB” value [2] was 0.13 mmol/L. For the same molecule, the “[LDL] Median CFB” value [2] was 0.09 mmol/L, the “[LDL] Mean CFB” value [3] was 0.16 mmol/L and the “[LDL] Median CFB” value [3] was 0.18 mmol/L. The “[LDL] Mean CFB” value [4] was 0.19 mmol/L, the “[LDL] Median CFB” value [4] was 0.14 mmol/L and the “[LDL] Mean CFB” value [5] was 0.04 mmol/L. The “[LDL] Median CFB” value [5] was 0.05 mmol/L, the “[LDL] Mean CFB” value [6] was 0.04 mmol/L and the “[LDL] Median CFB” value [6] was 0.09 mmol/L. For the same molecule, the “[LDL] Mean CFB” value [7] was -0.01 mmol/L, the “[LDL] Median CFB” value [7] was -0.01 mmol/L and the “[LDL] Mean CFB” value [8] was -0.05 mmol/L. The “[LDL] Median CFB” value [8] was 0.01 mmol/L, the “[LDL] Mean CFB” value [9] was 0.07 mmol/L and the “[LDL] Median CFB” value [9] was 0.05 mmol/L. The “[LDL] Mean CFB” value [10] was 0.10 mmol/L, the “[LDL] Median CFB” value [10] was 0.17 mmol/L and the “[LDL] Mean CFB” value [11] was 0.04 mmol/L. The “[LDL] Median CFB” value [11] was 0.1 mmol/L, the “[LDL] Mean CFB” value [12] was 0.14 mmol/L and the “[LDL] Median CFB” value [12] was 0.05 mmol/L. The “[LDL] Mean CFB” value [13] was 0.07 mmol/L, the “[LDL] Median CFB” value [13] was 0.10 mmol/L and the “[LDL] Mean CFB” value [14] was 0.05 mmol/L. The “[LDL] Median CFB” value [14] was 0.02 mmol/L, the “[LDL] Mean CFB” value [15] was 0.20 mmol/L and the “[LDL] Median CFB” value [15] was 0.18 mmol/L. The “[LDL] Mean CFB” value [16] was 0.15 mmol/L, the “[LDL] Median CFB” value [16] was 0.08 mmol/L and the “[LDL] Mean CFB” value [17] was 0.17 mmol/L. The “[LDL] Median CFB” value [17] was 0.12 mmol/L, the “[LDL] Mean CFB” value [18] was 0.31 mmol/L and the “[LDL] Median CFB” value [18] was 0.22 mmol/L. For the same molecule, the “[LDL] Mean CFB” value [19] was 0.27 mmol/L, the “[LDL] Median CFB” value [19] was 0.26 mmol/L and the “[LDL] Mean CFB” value [20] was 0.00 mmol/L. The “[LDL] Median CFB” value [20] was -0.01 mmol/L, the “[LDL] Mean CFB” value [21] was -0.02 mmol/L and the “[LDL] Median CFB” value [21] was 0.02 mmol/L. For the same molecule, the “[LDL] Mean CFB” value [22] was 0.02 mmol/L, the “[LDL] Median CFB” value [22] was -0.01 mmol/L and the “[LDL] Mean CFB” value [23] was 0.08 mmol/L. For the same molecule, the “[LDL] Median CFB” value [23] was 0.13 mmol/L, the “[LDL] Mean CFB” value [24] was 0.16 mmol/L and the “[LDL] Median CFB” value [24] was 0.14 mmol/L. The “[LDL] Mean CFB” value [25] was 0.15 mmol/L, the “[LDL] Median CFB” value [25] was 0.12 mmol/L and the “[LDL] Mean CFB” value [26] was 0.14 mmol/L. The “[LDL] Median CFB” value [26] was 0.20 mmol/L, the “[LDL] Mean CFB” value [27] was 0.13 mmol/L and the “[LDL] Median CFB” value [27] was 0.14 mmol/L. For the same molecule, the “[LDL] Mean CFB” value [28] was 0.11 mmol/L, the “[LDL] Median CFB” value [28] was 0.10 mmol/L and the “[LDL] Mean CFB” value [29] was 0.01 mmol/L. The “[LDL] Median CFB” value [29] was 0.02 mmol/L, the “[LDL] Mean CFB” value [30] was 0.13 mmol/L and the “[LDL] Median CFB” value [30] was 0.13 mmol/L. The “[LDL] Mean CFB” value [31] was 0.03 mmol/L, the “[LDL] Median CFB” value [31] was 0.04 mmol/L and the “[LDL] Mean CFB” value [32] was 0.12 mmol/L. For the same molecule, the “[LDL] Median CFB” value [32] was 0.13 mmol/L, the “[LDL] Mean CFB” value [33] was -0.01 mmol/L and the “[LDL] Median CFB” value [33] was 0.03 mmol/L. For the same molecule, the “[LDL] Mean CFB” value [34] was -0.01 mmol/L, the “[LDL] Median CFB” value [34] was 0.02 mmol/L and the “[LDL] Mean CFB” value [35] was 0.03 mmol/L. For the same molecule, the “[LDL] Median CFB” value [35] was 0.03 mmol/L, the “[LDL] Mean CFB” value [36] was 0.13 mmol/L and the “[LDL] Median CFB” value [36] was 0.17 mmol/L. For the same molecule, the “[LDL] Mean CFB” value [37] was 0.07 mmol/L, the “[LDL] Median CFB” value [37] was 0.16 mmol/L and the “[LDL] Mean CFB” value [38] was 0.13 mmol/L. The “[LDL] Median CFB” value [38] was 0.06 mmol/L, the “[LDL] Mean CFB” value [39] was -0.01 mmol/L and the “[LDL] Median CFB” value [39] was 0.22 mmol/L. For the same molecule, the “[LDL] Mean percentage CFB - 24 weeks results” value (from here on “[LDL] Mean percentage CFB”) (increased from 25 mg b.i.d. to 50 mg b.i.d at 12 weeks, week 1) was 2.10%, the “[LDL] Mean percentage CFB” value (increased from 25 mg b.i.d. to 50 mg b.i.d at 12 weeks, week 2) was 4.27% and the “[LDL] Mean percentage CFB” value (increased from 25 mg b.i.d. to 50 mg b.i.d at 12 weeks, week 4) was −3.29%. The “[LDL] Mean percentage CFB” value (increased from 25 mg b.i.d. to 50 mg b.i.d at 12 weeks, week 8) was −5.79%, the “[LDL] Mean percentage CFB” value (increased from 25 mg b.i.d. to 50 mg b.i.d at 12 weeks, week 12) was −0.19% and the “[LDL] Mean percentage CFB” value (increased from 25 mg b.i.d. to 50 mg b.i.d at 12 weeks, week 16) was 3.55%. For the same molecule, the “[LDL] Mean percentage CFB” value (increased from 25 mg b.i.d. to 50 mg b.i.d at 12 weeks, week 20) was −8.82%, the “[LDL] Mean percentage CFB” value (increased from 25 mg b.i.d. to 50 mg b.i.d at 12 weeks, week 24) was 2.65% and the “[LDL] Mean percentage CFB” value (increased from 50 mg q.d. to 100 mg q.d. at 12 weeks, week 1) was 0.31%. For the same molecule, the “[LDL] Mean percentage CFB” value (increased from 50 mg q.d. to 100 mg q.d. at 12 weeks, week 2) was 4.52%, the “[LDL] Mean percentage CFB” value (increased from 50 mg q.d. to 100 mg q.d. at 12 weeks, week 4) was −1.68% and the “[LDL] Mean percentage CFB” value (increased from 50 mg q.d. to 100 mg q.d. at 12 weeks, week 8) was 1.20%. For the same molecule, the “[LDL] Mean percentage CFB” value (increased from 50 mg q.d. to 100 mg q.d. at 12 weeks, week 12) was 2.96%, the “[LDL] Mean percentage CFB” value (increased from 50 mg q.d. to 100 mg q.d. at 12 weeks, week 16) was 4.69% and the “[LDL] Mean percentage CFB” value (increased from 50 mg q.d. to 100 mg q.d. at 12 weeks, week 20) was 3.51%. For the same molecule, the “[LDL] Mean percentage CFB” value (increased from 50 mg q.d. to 100 mg q.d. at 12 weeks, week 24) was 4.92%, the “[LDL] Mean percentage CFB” value (placebo switched to 50 mg b.i.d at week 12, week 16) was 4.13% and the “[LDL] Mean percentage CFB” value (placebo switched to 50 mg b.i.d at week 12, week 20) was 6.69%. The “[LDL] Mean percentage CFB” value (placebo switched to 50 mg b.i.d at week 12, week 24) was 2.68%, the “[LDL] Mean percentage CFB” value (placebo switched to 100 mg q.d. at week 12, week 16) was −2.85% and the “[LDL] Mean percentage CFB” value (placebo switched to 100 mg q.d. at week 12, week 20) was −1.07%. The “[LDL] Mean percentage CFB” value (placebo switched to 100 mg q.d. at week 12, week 24) was −8.19%.
